The test system of one experiment is ACHU. The experiment is described as follows: MTT assay, glioblastoma cell line ACHU. The experiment is classed as cell-based. Particulars: drug incubated 3 hours, MTT 72 hours after initial incubation. The procedure: (§1) To test the activities of tris(8-quinolinolato)gallium(III) (“drug”), MTT assays were performed using glioblastoma cell lines. Cells were plated (2×10^3 cells in 100 μl/well) in 96-well plates and allowed to recover for 24 hours. The drug was added in another 100 μl growth medium and incubated with cultured cells for 3 hours before the cell culture medium was replaced to remove the drug. Cell death was measured 72 hours after the initial incubation by MTT assay following the manufacturer's recommendations (EZ4U, Biomedica, Vienna, Austria).
Background: Tetrazolium assays rely on reduction of a dye to a coloured formazan, in cell work by metabolically active cells.

Experiment [1] relates to T98G. Description: MTT assay, glioblastoma cell line T98G. The experiment is classed as cell-based. As for the experimental part:
as §1

Experiment [2] has as its system U373. Description: MTT assay, glioblastoma cell line U373. Type of experiment: cell-based. Particulars: drug incubated 3 hours, MTT 72 hours after initial incubation. As for the experimental part: as §1
The subject of experiment [3] is U87. Description: MTT assay, glioblastoma cell line U87. Type of experiment: cell-based. As for the experimental part:
as §1

Experiment [4] relates to human glioblastoma cell line U251. The experiment is described as follows: ATCC MTT Cell Proliferation Assay, U251. The experiment is classed as cell-based. Particulars: U251, 72 hours treatment. As for the experimental part:
Tris(8-quinolinolato)gallium(III) and temozolomide were tested in human glioblastoma cell line U251 (which is resistant to BCNU, See Beljanski et al., Anticancer Res., 13(6A):2301-8 (1993)). Specifically, ATCC's MTT Cell Proliferation Assay® was performed using glioblastoma cell line U251. Stock cultures were allowed to grow to 70-80% confluence for this study. The anti-proliferative activity of tris(8-quinolinolato)gallium(III) or temozolomide against the cell line was evaluated in vitro using the ATCC's MTT Cell Proliferation Assay (Catalog No. 30-1010K). Cultures were maintained in a 37° C. humidified 5% CO2/95% air atmosphere. The cells were treated with tris(8-quinolinolato)gallium(III) or temozolomide at 1,000 μM, or a series of 4x dilutions thereof (250 μM, 62.5 μM, etc.). 100 μl of medium was removed from each well at 72 hours post-treatment and 10 μl MTT reagent was added to each well. The plates were incubated at 37° C. for 4 hours and then 100 μl of detergent was added. The plates were left overnight at room temperature in the dark and was read on a plate reader using SoftMax® Pro (version 5.2, Molecular Devices).
The absorbance data was analyzed as follows: Absorbance values were converted to Percent of Control and plotted against test agent concentrations for IC50 calculations using SoftMax® Pro (version 5.2, Molecular Devices). The plate blank signal average was subtracted from all wells prior to calculating the Percent of Control. Percent of Control values were calculated by dividing the absorbance values for each test well by the No Drug Control average (column 11 values; cells +vehicle control) and multiplying by 100. Plots of Compound Concentration versus Percent of Control were analyzed using the 4-parameter equation to obtain IC50 values and other parameters that describe the sigmoidal dose response curve.
The IC50 value for the test agent was estimated by curve-fitting the data using the following four parameter-logistic equation: […]

The test system of another experiment is glioma cell line U87. The experiment is described as follows: 3-dimentional tumor model (HuBiogel), MTT assay and Calcein AM live-cell staining. The experiment is classed as cell-based. The procedure:
The compound tris(8-quinolinolato)gallium(III) was tested in a 3-dimentional tumor model derived from glioma cell line U87. Specifically, cells were trypsinized, washed, counted by trypan blue exclusion. Tumor beads were then prepared by mixing 20,000 cells/10 μl of HuBiogel (4 mg/mL) (See U.S. patent application Ser. No. 10/546,506, which is incorporated herein by reference). The 3-D tumor beads were cultivated for 72 hours in multi-well plates with complete media (10% FBS) in a 37° C. incubator +5% CO2. Mini-tumors were treated with various concentrations of the test compound tris(8-quinolinolato)gallium(III) in media (final 0.2-0.3% DMSO) or control (DMSO). Repeated drug treatment was done by removing the culture media and replacing with fresh media with drug compound or DMSO. On Day 3, MTT assay and live-cell staining with Calcein AM were performed (5 beads/assay set).
Statistical analysis of data sets (Average, T-test, GI-50) was performed using MS-Excel program. The average GI-50 (the drug concentration required for growth inhibition at 50%) is 0.94 μM.

Experiment [5] deals with T98G. Particulars: cited from earlier work.
Experiment [6] has as its system U87. Particulars: cited from earlier work.
Experiment [7] deals with U373. Particulars: cited from earlier work.

Each structure is given as a SMILES string.

The IC50 is the concentration needed to halve the response being measured. A low value points to higher potency. `[Ga+3].[O-]c1cccc2cccnc12.[O-]c1cccc2cccnc12.[O-]c1cccc2cccnc12` [tris(8-quinolinolato)gallium(III)]: the concentration for half-maximal inhibition (IC50) in the experiment on ACHU was 300 nM; in the experiment on T98G [1] (drug incubated 3 hours, MTT 72 hours after initial incubation), 2000 nM; with U373 [2], 2500 nM; in the experiment on U87 [3] (U87, drug incubated 3 hours, MTT 72 hours after initial incubation), 940 nM; in [4], 4040 nM. The “activity in cells” value in the experiment with T98G [1] (resistant to temozolomide) is “active”. For the same molecule, the “activity against cell line” value with U87 [3] (U87, relatively resistant to BCNU) is on record as “active”. The GI50 in the experiment on glioma cell line U87 (U87 3-D tumor beads in HuBiogel, MTT on Day 3, read-out: average GI-50 (drug concentration required for growth inhibition at 50%)) is 940 nM. Besides, the “tumor killing in live-cell staining/image analysis” value with glioma cell line U87 (U87 3-D tumor beads, Calcein AM, Day 3) is “dose-dependent tumor killing”. Moreover, the “tumor proliferation activity” value with glioma cell line U87 (U87 3-D tumor beads, MTT, Day 3) is on record as “significantly inhibited”.
With `O=NN(CCCl)C(=O)NCCCl` [BCNU], the “BCNU (% cytostasis with 50 μg/ml BCNU)” value was 37.5 ± 8.6% with T98G [5], 18.5 ± 8.2% with U87 [6] and 30.4 ± 8.6% in the experiment on U373 [7]. In addition, inhibition in [4] was half-maximal at 53700 nM (IC50).
Regarding `Cn1nnc2c(C(N)=O)ncn2c1=O` [temozolomide], in experiment [4] (Homo sapiens, U-251), the IC50 was found to be 283000 nM.

Values taken from patent US20130310356A1, “METHOD FOR TREATING BRAIN CANCER” (Niiki Pharma Acquisition Corp. 2, priority 2010, published 2013).
